The values below come from US20050282818A1, “Ubiquitin ligase inhibitors” (Rigel Pharmaceuticals, Inc., priority 2004, published 2005).

Each structure is given as a SMILES string.

The target in this experiment is T1, TRAF6/Uev1A/Ubc13 (Homo sapiens, UniProt Q9Y4K3).
T1 sequence (Q9Y4K3 1-522): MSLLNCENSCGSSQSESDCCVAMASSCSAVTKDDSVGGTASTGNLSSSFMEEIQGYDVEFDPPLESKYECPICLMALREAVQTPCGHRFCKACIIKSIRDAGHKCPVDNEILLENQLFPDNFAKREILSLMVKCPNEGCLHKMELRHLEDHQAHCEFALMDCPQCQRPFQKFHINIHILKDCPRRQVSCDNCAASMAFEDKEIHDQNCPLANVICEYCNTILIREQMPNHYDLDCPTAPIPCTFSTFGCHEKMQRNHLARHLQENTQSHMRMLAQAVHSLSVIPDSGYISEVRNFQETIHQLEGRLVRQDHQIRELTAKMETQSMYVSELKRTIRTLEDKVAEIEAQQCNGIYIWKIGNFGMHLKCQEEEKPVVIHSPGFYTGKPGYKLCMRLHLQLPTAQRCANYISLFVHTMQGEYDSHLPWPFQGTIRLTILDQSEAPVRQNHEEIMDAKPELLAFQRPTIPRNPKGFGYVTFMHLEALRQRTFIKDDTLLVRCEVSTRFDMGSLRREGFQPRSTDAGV
Briefly: TRAF6/Uev1A/Ubc13 plate-based ubiquitin ligase assay. It counts as biochemical. How it is done:
For the assays described below, the TRAF6/Uev1A/UBC13 assay is the biochemical plate-based assay of TRAF6 ligase activity using Ubc13 as the E2 enzyme. The gel-based assay is the biochemical solution-based TRAF6 ligase assay (by SDS-PAGE and Western blot) to confirm the plate-based ELISA assay. The APC assay is an assay which is another E3 ligase (APC2/APC11) biochemical assay.
A 96-well Ni-plate was blocked with 100 μl of 1% casein in PBS for 1 hour at room temperature. The plates were then washed three times with 200 μl of 1×PBS and 80 μl of a reaction buffer was added per well which contained 50 ng of Flag-ubiquitin, 50 ng of His-ubiquitin, 62.5 mM Tris pH 7.5, 6.25 mM MgCl2, 1.0 mM DTT, and 2 μM ATP. To each well was added 10 μl of a solution of the compound in DMSO. The reaction was started by adding 10 μl of a solution consisting of 10 ng human E1, 25 ng each of Uev1a and Ubc13, and 100 ng TRAF6 in the reaction buffer. The plates were shaken for 10 minutes and incubate at room temperature for 1 hour. After the incubation, the plates were washed three times with 200 μl 1×PBS in 0.05% Tween and 100 μl of an antibody mix consisting of anti-Flag (1:30,000 dilution; Sigma F-3165) and anti-Mouse IgG-HRP (1/150,000 dilution; Jackson Immunoresearch #115-035-146) in 1×PBS with 0.25% BSA. The plates were then incubated for another 1 hour at room temperature, and after incubation the plate was washed three times with 200 μl 1×PBS with 0.05% Tween. The amount of ubiquitin was measured by adding 100 μl of Lumino substrate (1:5 dilution) and reading the luminescence with a fluorimeter.
Table 2 below illustrates the inhibitory activity of the compounds of the invention determined by the TRAF6/Uev1A/Ubc13 assay as well as in the ICAM, APC and the ROC1/CUL1 Ubiquitin Ligase Assay (SCF Assay). The IC50 values were determined using a various concentrations of the compounds.
`O=S(=O)(Nc1cccc2nonc12)c1ccc(Oc2ccc3c(C(F)(F)F)cc(C(F)(F)F)nc3n2)cc1` [compound 81, N-2,1,3-benzoxadiazol-4-yl-4-{[5,7-bis(trifluoromethyl)-1,8-naphthyridin-2-yl]oxy}benzenesulfonamide] yielded an IC50 of at least 20 µM.

On to `O=S(=O)(Nc1cccc2nsnc12)c1ccc(Oc2ccc(C(F)(F)F)cc2Cl)nc1` [compound 117, N-2,1,3-benzothiadiazol-4-yl-6-[2-chloro-4-(trifluoromethyl)phenoxy]pyridine-3-sulfonamide], for which the IC50 is at least 20 µM. In turn, `O=[N+]([O-])c1ccc(N2CCN(c3ccc([N+](=O)[O-])c4nonc34)CC2)cc1` [compound 147, 4-nitro-7-[4-(4-nitrophenyl)piperazin-1-yl]-2,1,3-benzoxadiazole] yielded an IC50 of 1 to 20 µM.

In turn, `CCOc1ccc2nc(NS(=O)(=O)c3ccc(Cl)c4nonc34)sc2c1` [compound 198, 7-chloro-N-(6-ethoxy-1,3-benzothiazol-2-yl)-2,1,3-benzoxadiazole-4-sulfonamide] came in with an IC50 of at least 20 µM. In the case of `O=[N+]([O-])c1ccc(N2CCSCC2)c2nonc12` [compound 237, 4-nitro-7-thiomorpholin-4-yl-2,1,3-benzoxadiazole], the IC50 was at least 20 µM. In the case of `O=S(=O)(c1cccc2nsnc12)N1CCC(Oc2ccccc2C(F)(F)F)CC1` [compound 240, 4-({4-[2-(trifluoromethyl)phenoxy]piperidin-1-yl}sulfonyl)-2,1,3-benzothiadiazole], the IC50 is at least 20 µM.

`CC1(C)CCN(S(=O)(=O)c2ccc(Cl)c3nonc23)CC1` [compound 247, 4-chloro-7-[(4,4-dimethylpiperidin-1-yl)sulfonyl]-2,1,3-benzoxadiazole]: the IC50 is at least 20 µM. The same measure for `COC(=O)c1ccc(NS(=O)(=O)c2ccc(Sc3ccc4ccccc4n3)c3nonc23)cc1` [compound 248, methyl 4-({[7-(quinolin-2-ylthio)-2,1,3-benzoxadiazol-4-yl]sulfonyl}amino)benzoate]: at least 20 µM; for `O=S(=O)(c1ccc(Sc2ccc(O)cc2)c2nonc12)N1CCN(c2ccccc2)CC1` [compound 249, 4-({7-[(4-phenylpiperazin-1-yl)sulfonyl]-2,1,3-benzoxadiazol-4-yl}thio)phenol]: 1 to 20 µM; for `COC(=O)c1ccc(NS(=O)(=O)c2ccc(N3CCSCC3)c3nonc23)cc1` [compound 250, methyl 4-{[(7-thiomorpholin-4-yl-2,1,3-benzoxadiazol-4-yl)sulfonyl]amino}benzoate]: at least 20 µM. Molecule `O=S(=O)(c1ccc(Sc2ccncc2)c2nonc12)N1CCN(c2ccccc2)CC1` [compound 251, 4-[(4-phenylpiperazin-1-yl)sulfonyl]-7-(pyridin-4-ylthio)-2,1,3-benzoxadiazole] displayed an IC50 of at least 20 µM.

`O=S(=O)(c1ccc(Sc2ccc3ccccc3n2)c2nonc12)N1CCN(c2ccccc2)CC1` [compound 252, 2-({7-[(4-phenylpiperazin-1-yl)sulfonyl]-2,1,3-benzoxadiazol-4-yl}thio)quinoline] yielded an IC50 of at least 20 µM. The same measure for `O=S(=O)(c1ccc(Sc2cccc3ccccc23)c2nonc12)N1CCN(c2ccccc2)CC1` [compound 253, 4-(1-naphthylthio)-7-[(4-phenylpiperazin-1-yl)sulfonyl]-2,1,3-benzoxadiazole]: 1 to 20 µM; for `O=S(=O)(Nc1cccc(F)c1)c1ccc(F)c2nonc12` [compound 272, 7-fluoro-N-(3-fluorophenyl)-2,1,3-benzoxadiazole-4-sulfonamide]: at least 20 µM. The value for `O=S(=O)(Nc1cccc(F)c1)c1ccc(Nc2cccc(F)c2)c2nonc12` [compound 273, N-(3-fluorophenyl)-7-[(3-fluorophenyl)amino]-2,1,3-benzoxadiazole-4-sulfonamide] was at least 20 µM; that for `Cc1cc(F)ccc1Nc1ccc(S(=O)(=O)Nc2ccc(F)cc2C)c2nonc12` [compound 275, N-(4-fluoro-2-methylphenyl)-7-[(4-fluoro-2-methylphenyl)amino]-2,1,3-benzoxadiazole-4-sulfonamide] was 1 to 20 µM. The value for `Cc1cc(F)ccc1NS(=O)(=O)c1ccc(F)c2nonc12` [compound 276, 7-fluoro-N-(4-fluoro-2-methylphenyl)-2,1,3-benzoxadiazole-4-sulfonamide] was 1 to 20 µM; that for `COC(=O)c1ccc(NS(=O)(=O)c2ccc(Oc3cccc4cccnc34)c3nonc23)cc1` [compound 277, methyl 4-({[7-(quinolin-8-yloxy)-2,1,3-benzoxadiazol-4-yl]sulfonyl}amino)benzoate] was at least 20 µM.

As to `FC(F)(F)c1cnc(N2CCN(c3ccc(N4CCOCC4)c4nonc34)CC2)c(Cl)c1` [compound 282, 4-{4-[3-chloro-5-(trifluoromethyl)pyridin-2-yl]piperazin-1-yl}-7-morpholin-4-yl-2,1,3-benzoxadiazole], the IC50 is at least 20 µM. `O=[N+]([O-])c1ccc(N2CCC(S(=O)(=O)c3ccccn3)CC2)c2nonc12` [compound 289, 4-nitro-7-[4-(pyridin-2-ylsulfonyl)piperidin-1-yl]-2,1,3-benzoxadiazole] displayed an IC50 of at least 20 µM. Consider `O=[N+]([O-])c1ccc(S(=O)(=O)c2cccc3cccnc23)c2nonc12` [compound 290, 8-[(7-nitro-2,1,3-benzoxadiazol-4-yl)sulfonyl]quinoline], for which the IC50 was at least 20 µM. Turning to `CCN(CC)c1cc(N2CCN(c3ccc(Cl)c(C(F)(F)F)c3)CC2)c2nonc2c1[N+](=O)[O-]` [compound 292, 7-{4-[4-chloro-3-(trifluoromethyl)phenyl]piperazin-1-yl}-N,N-diethyl-4-nitro-2,1,3-benzoxadiazol-5-amine], the IC50 is at least 20 µM. Molecule `CCN(CC)c1cc(N2CCN(c3ncc(C(F)(F)F)cc3Cl)CC2)c2nonc2c1[N+](=O)[O-]` [compound 293, 7-{4-[3-chloro-5-(trifluoromethyl)pyridin-2-yl]piperazin-1-yl}-N,N-diethyl-4-nitro-2,1,3-benzoxadiazol-5-amine] displayed an IC50 of at least 20 µM.

Take `CCN(CC)c1cc(N2CCN(c3ncccc3C#N)CC2)c2nonc2c1[N+](=O)[O-]` [compound 294, 2-{4-[6-(diethylamino)-7-nitro-2,1,3-benzoxadiazol-4-yl]piperazin-1-yl}nicotinonitrile]: the IC50 was at least 20 µM.

Regarding `O=[N+]([O-])c1c(N2CCCCC2)cc(N2CCN(c3ccc(Cl)c(C(F)(F)F)c3)CC2)c2nonc12` [compound 295, 7-{4-[4-chloro-3-(trifluoromethyl)phenyl]piperazin-1-yl}-4-nitro-5-piperidin-1-yl-2,1,3-benzoxadiazole], the IC50 is at least 20 µM.

Take `O=[N+]([O-])c1c(N2CCCCC2)cc(N2CCN(c3ncc(C(F)(F)F)cc3Cl)CC2)c2nonc12` [compound 296, 7-{4-[3-chloro-5-(trifluoromethyl)pyridin-2-yl]piperazin-1-yl}-4-nitro-5-piperidin-1-yl-2,1,3-benoxadiazole]: the IC50 was 1 to 20 µM. The value for `N#Cc1cccnc1N1CCN(c2cc(N3CCCCC3)c([N+](=O)[O-])c3nonc23)CC1` [compound 297, 2-[4-(7-nitro-6-piperidin-1-yl-2,1,3-benzoxadiazol-4-yl)piperazin-1-yl]nicotinonitrile] was at least 20 µM; that for `CCN(CC)c1cc(N2CCC3(CC2)OCc2ccccc23)c2nonc2c1[N+](=O)[O-]` [compound 298, N,N-diethyl-4-nitro-7-(1′H,3H-spiro[2-benzofuran-1,4′-piperidin]-1′-yl)-2,1,3-benzoxadiazol-5-amine] was at least 20 µM. `CCN(CC)c1cc(N2CCC(O)(c3ccccc3)CC2)c2nonc2c1[N+](=O)[O-]` [compound 299, 1-[6-(diethylamino)-7-nitro-2,1,3-benzoxadiazol-4-yl]-4-phenylpiperidin-4-ol]: the IC50 is at least 20 µM. Molecule `O=[N+]([O-])c1c(N2CCCCC2)cc(N2CCC3(CC2)OCc2ccccc23)c2nonc12` [compound 300, 1′-(7-nitro-6-piperidin-1-yl-2,1,3-benzoxadiazol-4-yl)-3H-spiro[2-benzofuran-1,4′-piperidine]] registered an IC50 of at least 20 µM.
